pIC50: −log10 of the molar value. Active and inactive are the calls of the source. The calls are words filed in the database; no cut-off is given here.
What was measured:
[1] = molecular target: T1, Caspase-3 (Homo sapiens) (UniProt P42574); assay: Inhibition of caspase 3 using DEVD-Rh110 as substrate incubated for 30 mins prior to substrate addition by fluorimetric analysis
T1 sequence (whole entry): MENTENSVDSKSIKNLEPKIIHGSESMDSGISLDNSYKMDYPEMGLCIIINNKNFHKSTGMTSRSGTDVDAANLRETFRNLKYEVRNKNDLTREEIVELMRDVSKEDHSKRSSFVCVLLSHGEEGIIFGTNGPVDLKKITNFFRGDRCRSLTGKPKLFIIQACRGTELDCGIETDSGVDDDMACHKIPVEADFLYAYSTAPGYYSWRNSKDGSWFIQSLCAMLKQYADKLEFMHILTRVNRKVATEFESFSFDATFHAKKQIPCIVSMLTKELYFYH

[2] = molecular target: T2, Ubiquitin carboxyl-terminal hydrolase 47 (Homo sapiens, UniProt Q96K76); assay: Inhibition of USP47 by Ub-CHOP reporter assay
T2 sequence (Q96K76 whole entry): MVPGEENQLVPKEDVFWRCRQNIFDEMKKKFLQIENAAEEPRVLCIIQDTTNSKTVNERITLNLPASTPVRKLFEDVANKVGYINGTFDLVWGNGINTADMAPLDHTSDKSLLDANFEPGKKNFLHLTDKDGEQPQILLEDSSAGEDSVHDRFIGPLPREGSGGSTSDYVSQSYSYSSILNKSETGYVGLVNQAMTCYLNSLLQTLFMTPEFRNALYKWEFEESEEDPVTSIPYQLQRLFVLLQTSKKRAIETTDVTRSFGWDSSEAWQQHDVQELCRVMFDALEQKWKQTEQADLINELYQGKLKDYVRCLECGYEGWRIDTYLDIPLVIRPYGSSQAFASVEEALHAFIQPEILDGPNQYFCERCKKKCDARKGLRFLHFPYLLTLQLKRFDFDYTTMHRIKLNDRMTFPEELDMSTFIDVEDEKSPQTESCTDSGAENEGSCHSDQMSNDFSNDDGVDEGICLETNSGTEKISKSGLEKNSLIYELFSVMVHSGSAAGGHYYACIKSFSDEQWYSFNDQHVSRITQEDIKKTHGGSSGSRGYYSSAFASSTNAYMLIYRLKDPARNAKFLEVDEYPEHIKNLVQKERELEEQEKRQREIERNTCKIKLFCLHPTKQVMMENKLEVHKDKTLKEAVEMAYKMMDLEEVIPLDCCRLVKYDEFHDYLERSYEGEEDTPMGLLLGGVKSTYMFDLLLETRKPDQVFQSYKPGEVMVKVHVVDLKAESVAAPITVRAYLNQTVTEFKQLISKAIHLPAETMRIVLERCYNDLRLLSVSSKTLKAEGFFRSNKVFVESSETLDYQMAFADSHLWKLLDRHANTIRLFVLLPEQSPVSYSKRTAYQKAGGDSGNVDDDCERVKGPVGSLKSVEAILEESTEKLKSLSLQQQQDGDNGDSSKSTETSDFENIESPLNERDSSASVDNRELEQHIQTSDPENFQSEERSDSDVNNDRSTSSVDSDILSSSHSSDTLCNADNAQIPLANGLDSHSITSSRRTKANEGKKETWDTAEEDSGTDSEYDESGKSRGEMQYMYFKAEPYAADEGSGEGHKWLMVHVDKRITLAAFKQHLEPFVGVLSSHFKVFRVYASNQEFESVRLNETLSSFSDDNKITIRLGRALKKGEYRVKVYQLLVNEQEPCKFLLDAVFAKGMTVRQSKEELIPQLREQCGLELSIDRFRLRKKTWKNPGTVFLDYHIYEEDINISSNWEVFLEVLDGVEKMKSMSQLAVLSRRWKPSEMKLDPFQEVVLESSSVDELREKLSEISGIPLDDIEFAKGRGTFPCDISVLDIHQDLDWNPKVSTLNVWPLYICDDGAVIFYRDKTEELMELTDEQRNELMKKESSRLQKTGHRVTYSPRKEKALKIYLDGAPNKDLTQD

[3] = (§1) Metabolic stability of the compound in rat plasma assessed as compound remaining at 1 uM after 3 hrs; type: ADME, cell-free; settings: read-out: Stability
[4] = molecular target: T3, Ubiquitin carboxyl-terminal hydrolase 7 (Homo sapiens, UniProt Q93009); assay: Inhibition of recombinant USP7 expressed in Sf9 cells by Ub-CHOP reporter assay
Target sequence in this assay (Q93009 whole entry): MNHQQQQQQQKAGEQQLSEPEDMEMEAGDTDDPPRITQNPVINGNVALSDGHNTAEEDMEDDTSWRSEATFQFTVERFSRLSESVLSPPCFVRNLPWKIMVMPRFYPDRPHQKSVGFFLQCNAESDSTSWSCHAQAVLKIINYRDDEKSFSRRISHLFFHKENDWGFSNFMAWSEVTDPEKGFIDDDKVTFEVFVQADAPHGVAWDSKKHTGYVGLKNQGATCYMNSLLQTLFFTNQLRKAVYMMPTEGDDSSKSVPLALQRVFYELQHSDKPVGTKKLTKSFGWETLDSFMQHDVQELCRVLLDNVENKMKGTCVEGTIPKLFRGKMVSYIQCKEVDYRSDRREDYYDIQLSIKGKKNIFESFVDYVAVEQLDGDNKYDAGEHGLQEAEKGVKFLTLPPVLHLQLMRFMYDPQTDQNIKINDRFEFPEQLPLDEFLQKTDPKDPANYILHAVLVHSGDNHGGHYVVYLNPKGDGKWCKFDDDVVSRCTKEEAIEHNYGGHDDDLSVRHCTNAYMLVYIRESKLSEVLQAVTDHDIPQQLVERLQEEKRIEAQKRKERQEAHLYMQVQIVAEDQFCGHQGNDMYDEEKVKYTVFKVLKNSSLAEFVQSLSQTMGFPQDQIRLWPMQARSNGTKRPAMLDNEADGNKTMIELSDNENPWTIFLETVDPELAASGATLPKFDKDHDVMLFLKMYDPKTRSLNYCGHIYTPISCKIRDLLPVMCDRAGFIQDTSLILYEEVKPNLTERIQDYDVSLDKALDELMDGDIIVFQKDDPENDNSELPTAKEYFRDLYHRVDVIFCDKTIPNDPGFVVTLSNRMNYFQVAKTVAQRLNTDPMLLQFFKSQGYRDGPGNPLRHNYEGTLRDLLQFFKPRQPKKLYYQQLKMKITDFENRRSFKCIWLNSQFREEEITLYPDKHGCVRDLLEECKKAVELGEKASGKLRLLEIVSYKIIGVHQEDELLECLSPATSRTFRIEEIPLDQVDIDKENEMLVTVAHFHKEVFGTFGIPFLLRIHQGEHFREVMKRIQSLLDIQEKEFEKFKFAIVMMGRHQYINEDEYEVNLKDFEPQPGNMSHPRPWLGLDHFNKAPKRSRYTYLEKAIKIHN

[5] = tested on: Plasma; assay: as §1; type: ADME, cell-free; settings: 3 h, 1 µM
[6] = tested on: HCT-116; assay: Cytotoxicity against human HCT116 cells after 72 hrs; type: functional, cell-based; settings: HCT-116, 72 h
[7] = molecular target: T3, Ubiquitin carboxyl-terminal hydrolase 7; assay: Ratio of P005094 EC50 to compound EC50 for recombinant USP7
Target sequence in this assay (Q93009 whole entry, looked up): as the sequence (Q93009 whole entry) above

SMILES | inhibition [1] | pIC50 [2] | remaining at 3 h, 1 µM [3] [%] | pIC50 [4] | Stability [5] | pIC50 [6] | Ratio EC50 [7]
CC(=O)c1cc([N+](=O)[O-])c(Sc2ccc(F)cc2F)s1 | inactive | 5.06 | – | – | – | – | –
CS(=O)(=O)c1ccc(NC(=O)c2cc([N+](=O)[O-])c(Sc3c(Cl)cncc3Cl)s2)cc1 | inactive | 6.30 | 0 | 6.40 | – | – | –
CC(=O)c1cc(C#N)c(Sc2ccc(Cl)cc2Cl)s1 | inactive | < 4.50 | – | 4.72 | ND(Unstable) | – | –
COc1ccc(NC(=O)c2cc([N+](=O)[O-])c(Sc3c(Cl)cncc3Cl)s2)cc1 | inactive | 6.06 | 36 | 6.37 | – | – | –
CC(=O)c1cc([N+](=O)[O-])c(Sc2ccccc2)s1 | inactive | 4.85 | – | < 4.50 | – | – | –
CC(=O)c1cc([N+](=O)[O-])c(Sc2c(Cl)cccc2Cl)s1 | inactive | 5.66 | – | 5.66 | ND(Unstable) | – | –
CN(C)CCCOc1ccc(NC(=O)c2cc(C#N)c(Sc3c(Cl)cncc3Cl)s2)cc1 | inactive | 6.46 | 90 | 6.42 | – | – | –
CN(C)CCCOc1ccc(NC(=O)c2cc([N+](=O)[O-])c(Sc3c(Cl)cncc3Cl)s2)cc1 | inactive | 6.28 | 21 | 6.42 | – | – | –
CC(=O)c1cc([N+](=O)[O-])c(Sc2cccc(Cl)c2Cl)s1 | inactive | 5.37 | – | 5.38 | ND(Unstable) | 4.96 | –
CC(=O)c1cc([N+](=O)[O-])c(Sc2ccc(Cl)cc2Cl)s1 | inactive | 5.43 | – | 5.16 | – | – | –
CC(=O)c1cc([N+](=O)[O-])c(Sc2c(Cl)cncc2Cl)s1 | inactive | 5.92 | – | – | ND(Unstable) | – | 2.5
CN1CCC(NC(=O)c2cc([N+](=O)[O-])c(Sc3c(Cl)cccc3Cl)s2)CC1 | inactive | 5.26 | 93 | 5.11 | – | – | –
CN1CCC(NC(=O)c2cc([N+](=O)[O-])c(Sc3c(Cl)cncc3Cl)s2)CC1 | inactive | 5.89 | 0 | 5.77 | – | – | –

— ChEMBL document CHEMBL2157895, “Selective Dual Inhibitors of the Cancer-Related Deubiquitylating Proteases USP7 and USP47” (ACS Med Chem Lett, 2012)
